Holding throughout (format): cell-based
For assay [1], the system named is J774A.1 (Mouse BALB/c monocyte macrophage cell line) cells. The assay is described as follows: LPS+ATP-induced IL-1β secretion inhibition in J774A.1 cells. Conditions: J774.A1, 1 μM compound, graded compared to taurodeoxycholic acid (positive control), read-out: IL-1β production inhibition grade. In outline:
(§1)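 Grades (A >100%, B 50–100%, C 20–50%, D <20%) express cytokine suppression by 1 μM compound relative to taurodeoxycholic acid. LPS-induced TNF-α and LPS+ATP-induced IL-1β secretion were measured in murine J774A.1 macrophage cells.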

Assay [2] shares this test system. The assay is described as follows: LPS-induced TNF-α secretion inhibition in J774A.1 cells. Conditions: J774.A1, 1 μM compound, graded compared to taurodeoxycholic acid (positive control), read-out: TNF-α production inhibition grade. In outline:
as §1

Assay [3] relates to U937 cells (human monocytic cell line). The assay is described as follows: Pam2CSK4-induced TNF-α secretion inhibition in PMA-differentiated U937 cells. Conditions: U-937, U937 cells differentiated with PMA, read-out: TNF-α production inhibition grade (IC50). A digest of the protocol:
(§2)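 Inhibition is given as IC50 (μM) in A-D bands, using distinct thresholds for TNF-α and for IL-1β. Secretion followed Pam2CSK4 stimulation (TNF-α) or BzATP stimulation (IL-1β) of compound-pretreated, PMA-differentiated U937 macrophages.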

Assay [4] has the same test system. The assay is described as follows: BzATP-induced IL-1β secretion inhibition in PMA-differentiated U937 cells. Conditions: U-937, U937 cells differentiated with PMA, read-out: IL-1β production inhibition grade (IC50). In outline:
as §2

Molecules are shown by their SMILES.

Regarding `CC[C@H]1[C@@H](O)[C@@H]2[C@H](C[C@H](O)[C@]3(C)[C@@H]([C@H](C)CCC(=O)N[C@H](CC(C)C)CS(=O)(=O)O)CC[C@@H]23)[C@@]2(C)CC[C@@H](O)C[C@@H]12` [NC50031], the inhibition (usually the change of the read-out against control, counted positive when it falls) at 1 µM in assay [1] is 50 to 100%; in assay [2] it was below 20%. In addition, the half-inhibitory concentration (IC50) – broadly, the midpoint of a concentration-inhibition curve – in assay [3] was at least 2000 nM; in assay [4], 50 to 100 nM.

Turning to `CC[C@H]1[C@@H](O)[C@@H]2[C@H](C[C@H](O)[C@]3(C)[C@@H]([C@H](C)CCC(=O)NC4(CS(=O)(=O)O)CC4)CC[C@@H]23)[C@@]2(C)CC[C@@H](O)C[C@@H]12` [NC50032], the inhibition at 1 µM in assay [1] was 50 to 100%; in assay [2], below 20%. Besides, the IC50 was at least 2000 nM in assay [3] and 50 to 100 nM in assay [4].

(Values after patent publication US20240391948A1, “NOVEL COMPOUND THAT INHIBITS TNF-ALPHA GENERATION AND INFLAMMASOME ACTIVITY AND PREPARATION METHOD THEREFOR” (SHAPERON INC., priority 2021, published 2024).)
